# Key:
# TNF-α = experiment: PHA-induced release of TNF-α from human buffy coats; format: cell-based; conditions: 10 uM; PHA 5 μg/ml, 16 hours; inhibition
# Procedure: (§1) The study was conducted in two phases. The first phase included optimization of the test methodology and included also dose-range finding studies, using buffy coats from 3 human donors, stimulated with phytohemagglutinin (PHA). The concentrations of the test article and the duration of exposure were optimized to obtain acceptable dose-response ratios. Following optimization of the test conditions, a final protocol was issued. In the Main Study, buffy coats from 5 healthy human male donors were stimulated with PHA, 5 μg/ml.
# (§2) The inhibitory effects of three concentrations of NK and one concentration of ketotifen were evaluated in the Main Study. The buffy coats were resuspended in assay media and were pre-incubated for 30 min with either vehicle/saline, ketotifen (10 μM) or norketotifen (1.0; 10 or 100 μM). Following these preincubations, the white blood cell suspensions were stimulated for 16 hours with PHA, 5 μg/ml. The cell system supernatants were then harvested and stored frozen.
# IL-10 = experiment: PHA-induced release of IL-10 from human buffy coats; format: cell-based; conditions: 10 uM; PHA 5 μg/ml, 16 hours; inhibition
# Procedure: as §1, §2
# IL-1β = experiment: PHA-induced release of IL-1β from human buffy coats; format: cell-based; conditions: 10 uM; PHA 5 μg/ml, 16 hours; inhibition
# Procedure: as §1, §2
# IFN-γ = experiment: PHA-induced release of IFN-γ from human buffy coats; format: cell-based; conditions: 10 uM; PHA 5 μg/ml, 16 hours; inhibition
# Procedure: as §1, §2
# IL-4 = experiment: PHA-induced release of IL-4 from human buffy coats; format: cell-based; conditions: 10 uM; PHA 5 μg/ml, 16 hours; inhibition
# Procedure: as §1, §2
# IL-13 = experiment: PHA-induced release of IL-13 from human buffy coats; format: cell-based; conditions: 10 uM; PHA 5 μg/ml, 16 hours; inhibition
# Procedure: as §1, §2
# IL-8 = experiment: PHA-induced release of IL-8 from human buffy coats; format: cell-based; conditions: 10 uM; PHA 5 μg/ml, 16 hours; inhibition
# Procedure: as §1, §2
# IL-2 = experiment: PHA-induced release of IL-2 from human buffy coats; format: cell-based; conditions: 10 uM; PHA 5 μg/ml, 16 hours; inhibition
# Procedure: as §1, §2
# IL-6 = experiment: PHA-induced release of IL-6 from human buffy coats; format: cell-based; conditions: 10 uM; PHA 5 μg/ml, 16 hours; inhibition
# Procedure: as §1, §2
# [1] = tested on: croton oil-induced ear swelling; experiment: Croton oil-induced ear swelling; format: in vivo, CD-1 female mice; set-up: Average ear thickness: unit not given beside the values; conditions: for Average ear thickness: single oral dose 10 mg/kg 60 min before
# Procedure: The effects of NK, PRED and the vehicle (5% PEG in water) were tested orally in CD-1 female mice. Under the test protocol, 20 μl of 1.0% croton oil in acetone was applied topically to both ears of three groups of mice, each group consisting of 6 mice. No attempt was made to remove the croton oil solution since the solvent evaporated within 30 seconds. The oral doses of NK and PRED were 10 mg/kg (10 ml/kg) bodyweight for both compounds and were administered 60 min before the croton oil applications. Vehicle-treated mice were dosed 10 ml/kg of water, containing 5% polyethylene glycol (PEG), which was also the solvent for the test articles. Ear thickness was measured with an electronic caliper and mean ear thickness (N=12; right+left ears) were calculated and compared with the thickness of ears from vehicle-treated mice (Student's t-test).
# [2] = tested on: oxazolone-induced increase in ear thickness; experiment: Oxazolone test of immunosuppression (ear thickness); format: in vivo, BALB/c mice; conditions: for Increase in ear thickness (mm): control 0.153; for Increase in ear thickness (%): control 100.0
# Procedure: Male BALB/c mice, 20-24 grams, 7-12 weeks, were used. The sensitization dosing (Day 1) consisted of painting the ventral portion of the pre-shaved abdominal skin with 0.1 ml of 3.0% oxazolone in 70% ethanol. Test articles were administered orally in 1.0% methyl-cellulose, starting on Day 1 and continuing for 10 consecutive days. The challenge dosing consisted of the application of 0.05 ml of 3.0% oxazolone in 70% ethanol on both sides of the outer pinna of the right ear. The thickness of both ears of all animals was measured with a calliper before the challenge dose and 24 hours after the administration of the challenge dose (Day 10). The ear thickness of untreated mice was 0.19 to 0.20 mm.
# Justification of the model: The classic oxazolone test method was used with minor modifications. This method has been used for over 40 years in numerous drug development projects.
# PAF-induced eosinophilia = experiment: PAF-induced pulmonary eosinophil accumulation after continuous subcutaneous dosing; format: in vivo, Sprague-Dawley rats; conditions: 1 mg/kg/day sc for 6 days, rats; BSA + saline control 100, PAF control 250
# Procedure: Male Sprague-Dawley rats, 400-600 g, were used in these studies.
# The study described here used subcutaneous administration of norketotifen and ketotifen by Alzet® osmotic pumps. The rats were administered either RS-norketotifen hydrogen fumarate (1.0 mg/kg/day) or RS-ketotifen hydrogen fumarate (1.0 mg/kg/day) or saline. After five days of sc infusions of test articles and the vehicle, the animals were injected, i.p. with 10 μg PAF (platelet aggregating factor) in 0.25% bovine serum albumin (BSA) in saline. The subcutaneous infusions of test articles or vehicle were continued for another twenty-four hours and the animals were then sacrificed by intraperitoneal injections of a barbiturate. The tracheae of the euthanized animals were exposed and cannulated and aliquots (6×10 ml) of a Tyrode solution were successively introduced into the lungs and aspirated by gentle compression of the thorax. The total recovery of lung fluid was usually above 80%. The cell suspensions were concentrated by low speed centrifugation (200 g for 10 min) and the resulting cell pellet was resuspended in 1 ml of a Tyrode solution. Total cell counts were performed after dilution in Turks fluid, fixation in methanol and Leishman staining.
# The study shown here used norketotifen, ketotifen, and saline (control) after continuous dosing with Alzet® Osmotic pumps.
# sedation = conditions: art-accepted mouse model of sedation; U.S. Pat. Nos. 7,226,934 and 7,557,128; cited from earlier work
compound,measurement,setting,value
"CN1CCC(=C2c3ccccc3CC(=O)c3sccc32)CC1 [Ketotifen, ketotifen, reference compound]",Effect on PHA-induced release of TNF-α (%),TNF-α,39.98%
same,Effect on PHA-induced release of IL-10 (%),IL-10,0.00%
same,Effect on PHA-induced release of IL-1β (%),IL-1β,0.00%
same,Effect on PHA-induced release of IFN-γ (%),IFN-γ,0.00%
same,Effect on PHA-induced release of IL-4 (%),IL-4,0.00%
same,Effect on PHA-induced release of IL-13 (%),IL-13,0.00%
same,Effect on PHA-induced release of IL-8 (%),IL-8,30.73%
same,Effect on PHA-induced release of IL-2 (%),IL-2,0.00%
same,Effect on PHA-induced release of IL-6 (%),IL-6,0.00%
"C[C@]12C=CC(=O)C=C1CC[C@@H]1[C@@H]2[C@@H](O)C[C@@]2(C)[C@H]1CC[C@]2(O)C(=O)CO [PRED, prednisolone]",Average ear thickness,"[1]; 0 (predose) min after croton oil, vehicle 0.21 ± 0.02",0.22 ± 0.01
same,Average ear thickness,"[1]; 90 min after croton oil, vehicle 0.29 ± 0.04",0.28 ± 0.01
same,Average ear thickness,"[1]; 120 min after croton oil, vehicle 0.28 ± 0.02",0.27 ± 0.01
same,Anti-inflammatory effect compared with vehicle control group (conclusion in words),"[1]; single oral dose 10 mg/kg, croton oil ear swelling in mice",did not express statistically significant anti-inflammatory effect
same,Immunosuppression (%),[2]; 0.3 mg/kg/day oral for 10 days,29.4%
same,Increase in ear thickness (mm),[2]; 0.3 mg/kg/day oral for 10 days,0.108 mm
same,Increase in ear thickness (%),[2]; 0.3 mg/kg/day oral for 10 days,70.6%
same,Immunosuppression (%),[2]; 1.0 mg/kg/day oral for 10 days,45.0%
same,Increase in ear thickness (mm),[2]; 1.0 mg/kg/day oral for 10 days,0.084 mm
same,Increase in ear thickness (%),[2]; 1.0 mg/kg/day oral for 10 days,55.0%
same,Immunosuppression (%),[2]; 3.0 mg/kg/day oral for 10 days,50.3%
same,Increase in ear thickness (mm),[2]; 3.0 mg/kg/day oral for 10 days,0.076 mm
same,Increase in ear thickness (%),[2]; 3.0 mg/kg/day oral for 10 days,49.7%
same,Immuno-suppressant activity (conclusion in words),"[2]; daily oral dosing for 10 days to mice, RS-norketotifen 10 or 30 mg/kg, prednisolone at 10 times lower doses",potent and dose-dependent immune suppression
"O=C(O)C=CC(=O)O.O=C1Cc2ccccc2C(=C2CCNCC2)c2ccsc21 [Norketotifen HF, RS-norketotifen hydrogen fumarate]",PAF-induced esosinophilia (% ± SEM),PAF-induced eosinophilia,74 ± 4%
"CN1CCC(=C2c3ccccc3CC(=O)c3sccc32)CC1.O=C(O)/C=C/C(=O)O [Ketotifen HF, RS-ketotifen hydrogen fumarate, reference compound]",PAF-induced esosinophilia (% ± SEM),PAF-induced eosinophilia,110 ± 3%
"O=C(O)/C=C/C(=O)O.O=C1Cc2ccccc2C(=C2CCNCC2)c2ccsc21 [R-isomer, R-norketotifen]",Sedative effects,sedation,sedative effects were attributed to the R-isomer
